Data published in patent publication US20140005103A1, “SULFONAMIDE DERIVATIVES AND METHODS OF USE THEREOF FOR IMPROVING THE PHARMACOKINETICS OF A DRUG” (Merck, Sharp & Dohme Corp., priority 2012, published 2014).
pIC50: −log10 of the molar value.

Experiments:
[1] = target: T1, CYP2C9 (Homo sapiens, UniProt P11712); test: Cocktail CYP assay, diclofenac 4'-hydroxylation; assay type: in vitro ADME; details: human liver microsomes, 5 μM diclofenac; test concentrations up to 10 μM
T1 construct: 0.1 mg/mL protein human liver microsomes (BD Gentest); tissue BD Gentest; host or cells: human liver microsomes
Procedure: Determination of IC50 in a Cocktail Assay for CYPs 1A2, 2C9, 2C19, 2D6 and 3A4
This assay was performed in a standard 96-well plate design. IC50 values were calculated from the percent inhibition observed for each test compound at 6 concentrations (for example, 0.0032, 0.016, 0.08, 0.4, 2 and 10 μM). The incubation substrate mix contains 10 μM phenacetin (1A2), 5 μM diclofenac (2C9), 30 μM mephenyloin (2C19), 5 μM dextromethorphan (2D6) and 2 μM midazolam (3A4), 0.1 mg/mL protein human liver microsomes (BD Gentest), 1 mM NAPDH, 3.3 mM MgCl2 and 100 mM potassium phosphate buffer (pH 7.4). The production of the metabolite of each probe substrate was determined after incubation for 10 min at 37° C. Quantitation of the metabolite peak area ratio against an internal standard (tolbutamide) was determined by LC/MS/MS analysis following acetonitrile treatment of the incubations.
(§1) Samples were analyzed in the MRM mode with a SCIEX API-4000 mass spectrometer (Applied Biosystems, Foster City, Calif.), with a Shimadzu LC-20 AD pump (Shimadzu corporation, Kyoto, JP) and a CTC PAL autosampler (Agilent Technologies, Switzerland). A Phenomenex, Luna, 5 nm, 100 A, 2.00×30 mm HPLC column was used for the separation. The mobile phases were: (A) 0.1% formic acid in water and (B) 0.1% formic acid in acetonitrile. The binary gradient was as follows.
(§2) The peak area ratio of the analyte to the internal standard was used to quantify the metabolite. The values of peak area ratios in the presence of test compound were compared to those of maximum or minimum controls and were expressed as % inhibition by interpolating between the maximum and minimum peak area ratios. Incubations with no inhibitor were defined as the maxima.
(§3) The following equation was used to calculate the % inhibition:
(§4) [1−[(X−Low control)/(High control−Low control)]]*100
(§5) For the IC50 calculation, SigmaPlot was used to plot the mean % inhibition versus the test compound concentrations and for non-linear regression analysis of the data. Depending on the range of data points defining the inhibition curve, the data may have been fit to the 4-parameter logistic equation.

[2] = target: CYP3A4 (Homo sapiens, UniProt P08684); test: IC50 vs CYP3A by inhibition of lopinavir metabolism in human liver microsomes; assay type: biochemical; details: pH 7.4, human liver microsomes, 1.5 μM lopinavir, 8 min at 37° C., test concentrations 0.098-100 nM, read-out: 3A4(LPV)
Procedure: Determination of IC50 vs CYP3A by Measurement of Inhibition of Lopinavir Metabolism
This assay was performed in a standard 96-well plate design. IC50 values were calculated from the percent inhibition observed for each test compound at 6 concentrations (for example, 0.098, 0.391, 1.56, 6.25, 25 and 100 nM). The incubation substrate mix contains 1.5 μM lopinavir, 0.01 mg/mL protein human liver microsomes (BD Gentest), 1 mM NAPDH, 3.3 mM MgCl2 and 100 mM potassium phosphate buffer (pH 7.4). The production of the sum of three hydroxylated metabolites (M2: 6-hydroxy lopinavir, M3: 4-hydroxy lopinavir, M4: 4-hydroxy lopinavir (epimer of M3), Kumar et al., 1999) was determined after incubation for 8 min at 37° C. Quantitation of the metabolite peak area ratio against an internal standard (tolbutamide) was determined by LC/MS/MS analysis following acetonitrile treatment of the incubations.
as §1, with “μm,” for “nm,”
as §2, with “maxima and with 5 μM ketoconazole were defined as the minima” for “maxima.”
as §3, §4, §5

[3] = target: T2, human CYP11B1 (Homo sapiens, UniProt P15538); test: IC50 vs CYP11B1 by cortisol synthesis in V79 cells; assay type: cell-based; details: V79 cells expressing human CYP11B1, 1500 nM RSS, cortisol HTRF; test concentrations 0.5-10000 nM
T2 construct: expressed in transfected cells
T2 sequence (P15538 25-503): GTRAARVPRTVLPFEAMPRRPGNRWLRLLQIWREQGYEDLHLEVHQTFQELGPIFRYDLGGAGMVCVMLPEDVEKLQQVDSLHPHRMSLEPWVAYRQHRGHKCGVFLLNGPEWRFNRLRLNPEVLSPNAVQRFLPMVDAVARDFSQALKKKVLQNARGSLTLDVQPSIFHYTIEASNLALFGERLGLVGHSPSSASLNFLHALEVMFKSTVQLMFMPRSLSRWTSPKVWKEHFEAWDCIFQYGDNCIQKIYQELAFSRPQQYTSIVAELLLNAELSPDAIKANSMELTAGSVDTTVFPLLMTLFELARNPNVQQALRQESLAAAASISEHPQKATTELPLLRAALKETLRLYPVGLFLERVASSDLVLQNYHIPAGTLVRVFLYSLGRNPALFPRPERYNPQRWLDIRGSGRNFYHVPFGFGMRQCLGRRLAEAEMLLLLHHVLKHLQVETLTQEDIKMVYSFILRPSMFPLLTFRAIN
Procedure: Determination of IC50 vs CYP11B1/CYP11B2 by Measurement of Cortisol/Aldosterone Synthesis
This assay was performed in a standard 384-well plate design using cultured V79 cells stably expressing human CYP11B1 or human CYP11B2. Test compounds at 10 concentrations (for example, 10000, 3333.3, 1111.1, 370.4, 123.5, 41.2, 13.7, 4.6, 1.5 and 0.5 nM) were added in 384-well plate after the cell-seeding procedure. The incubation substrate contains 1500 nM RSS for CYP11B1 assay/750 nM DOC for CYP11B2 assay. The
Cortisol/Aldosterone production of cell culture supernatant was determined by Cortisol/Aldosterone HTRF kit after for about 15 hours incubation at RT (protect from light). IC50 values were calculated from the percent inhibition observed for each test compound at 10 concentrations.
The assay plate was read using Envision (Perkin Elmer, Waltham, Mass.) at 665 nm and 590 nm (using Filter Barcode of 217#, 205#; Mirror Barcode of 446#).
Data are analyzed using Assay Data Analyzer. All ratio data (665 nm/590 nm) are back calculated according to the standard curve, resulting in Cortisol/Aldosterone concentrations. IC50 values are reported as the Inflection Point (IP) of a four parameter fit of the titration data.
as §3
% Activity=100×{1−(Sample_back calculated Cortisol/Aldosterone concentration−LC_back calculated Cortisol/Aldosterone concentration)/(HC_back calculated Cortisol/Aldosterone concentration−LC_back calculated Cortisol/Aldosterone concentration)}

T1 sequence (P11712 whole entry): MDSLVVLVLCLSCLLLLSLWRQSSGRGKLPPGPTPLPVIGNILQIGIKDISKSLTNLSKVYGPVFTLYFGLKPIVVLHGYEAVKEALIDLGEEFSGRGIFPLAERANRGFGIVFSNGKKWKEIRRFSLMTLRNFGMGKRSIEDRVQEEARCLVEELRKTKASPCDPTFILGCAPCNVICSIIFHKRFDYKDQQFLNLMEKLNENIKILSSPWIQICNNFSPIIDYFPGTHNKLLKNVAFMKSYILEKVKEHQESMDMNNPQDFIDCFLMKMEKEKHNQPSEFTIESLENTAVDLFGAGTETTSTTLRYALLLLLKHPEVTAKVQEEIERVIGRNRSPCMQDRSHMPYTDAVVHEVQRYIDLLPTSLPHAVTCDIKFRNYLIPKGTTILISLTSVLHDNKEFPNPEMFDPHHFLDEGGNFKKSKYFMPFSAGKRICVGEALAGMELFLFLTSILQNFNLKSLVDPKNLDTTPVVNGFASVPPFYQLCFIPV
Chain of CYP3A4 (P08684 2-503): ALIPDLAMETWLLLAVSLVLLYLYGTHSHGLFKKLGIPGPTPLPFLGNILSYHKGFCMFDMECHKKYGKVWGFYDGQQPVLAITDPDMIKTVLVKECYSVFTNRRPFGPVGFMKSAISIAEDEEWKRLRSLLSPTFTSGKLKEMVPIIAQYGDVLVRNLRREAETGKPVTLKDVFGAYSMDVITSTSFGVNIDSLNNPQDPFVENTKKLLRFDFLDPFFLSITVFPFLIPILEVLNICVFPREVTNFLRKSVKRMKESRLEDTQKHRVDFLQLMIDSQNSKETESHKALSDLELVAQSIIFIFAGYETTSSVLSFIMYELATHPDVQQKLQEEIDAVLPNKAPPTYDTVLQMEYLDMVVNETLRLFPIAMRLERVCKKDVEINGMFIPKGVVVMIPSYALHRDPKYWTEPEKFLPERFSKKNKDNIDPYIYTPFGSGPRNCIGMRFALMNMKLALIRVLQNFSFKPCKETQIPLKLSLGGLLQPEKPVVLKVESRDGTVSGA

Row | pIC50 [1] | IC50 at 8 min [2] [nM] | pIC50 [3] | Structure (SMILES)
1 | < 5.00 | 3.6 | 5.35 | C[C@H](c1ccc(F)cc1)n1cncc1CN1CCN(S(=O)(=O)c2cnc(N3CCNCC3)cn2)CC1 [Compound 30]
2 | < 5.00 | 4.4 | < 5.00 | Cc1ccc(C2(n3cncc3CN3CCN(S(=O)(=O)c4cnc(N5CCN(C)CC5)s4)CC3)CC2)nc1 [Compound 31]
3 | 5.81 | 1.2 | 5.80 | CN1CCN(c2ncc(S(=O)(=O)N3CCN(Cc4cncn4CCOc4ccc(Cl)cc4)CC3)s2)CC1 [Compound 32]
4 | < 5.00 | 2.3 | 5.32 | CN1CCN(c2ncc(S(=O)(=O)N3CCN(Cc4cncn4CCOc4ccc(F)cn4)CC3)s2)CC1 [Compound 33]
5 | 5.21 | 4.1 | 5.42 | CC(c1cncn1[C@H](C)c1ccc(F)cc1)N1CCN(S(=O)(=O)c2cnc(N3CCN4C[C@H](O)C[C@H]4C3)s2)CC1 (stereo partly drawn) [Compound 37]
6 | 5.33 | 8 | 5.61 | C[C@H](c1ccc(F)cc1)n1cncc1C1C(=O)OCC2CN(S(=O)(=O)c3cnc(Nc4ccc(C(F)(F)F)cn4)s3)CCN21 (stereo partly drawn) [Compound 39]
7 | 6.45 | 0.8 | 5.94 | C[C@H](c1ccc(F)cc1)n1cncc1C1COCC2CN(S(=O)(=O)c3cnc(Nc4ccccn4)s3)CCN21 (stereo partly drawn) [Compound 40]
8 | < 5.00 | 32 | 5.11 | C[C@H](c1ccc(F)cc1)n1cnnc1CN1CCN(S(=O)(=O)c2cnc(N3CCN4C[C@H](O)C[C@H]4C3)s2)CC1 [Compound 42]
